Reference: PubChem BioAssay (NCI)
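Results reflect a 48-hour exposure of cells in 96-well plates to compound at five concentrations. TGI denotes the concentration required for complete inhibition of growth.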

Experiments:
Assay in all cases: DTP human tumour cell line panel, 48 h
786-0 renal = test system: 786-0 renal
A498 renal = test system: A498 renal
A549 NSCLC = test system: A549 NSCLC
ACHN renal = test system: ACHN renal
BT-549 breast = test system: BT-549 breast
CAKI-1 renal = test system: CAKI-1 renal
CCRF-CEM leukemia = test system: CCRF-CEM leukemia
COLO 205 colon = test system: COLO 205 colon
DU-145 prostate = test system: DU-145 prostate
EKVX NSCLC = test system: EKVX NSCLC
HCC-2998 colon = test system: HCC-2998 colon
HCT-116 colon = test system: HCT-116 colon
HCT-15 colon = test system: HCT-15 colon
HL-60(TB) leukemia = test system: HL-60(TB) leukemia
HOP-62 NSCLC = test system: HOP-62 NSCLC
HOP-92 NSCLC = test system: HOP-92 NSCLC
HS 578T breast = test system: HS 578T breast
HT29 colon = test system: HT29 colon
IGROV1 ovarian = test system: IGROV1 ovarian
K-562 leukemia = test system: K-562 leukemia
KM12 colon = test system: KM12 colon
LOX IMVI melanoma = test system: LOX IMVI melanoma
M14 melanoma = test system: M14 melanoma
MALME-3M melanoma = test system: MALME-3M melanoma
MCF7 breast = test system: MCF7 breast
MDA-MB-231 breast = test system: MDA-MB-231 breast
MDA-MB-435 = test system: MDA-MB-435
MDA-N = test system: MDA-N
MOLT-4 leukemia = test system: MOLT-4 leukemia
NCI-H23 lung = test system: NCI-H23 lung
NCI-H460 lung = test system: NCI-H460 lung
NCI-H522 lung = test system: NCI-H522 lung
NCI/ADR-RES ovarian = test system: NCI/ADR-RES ovarian
OVCAR-3 ovarian = test system: OVCAR-3 ovarian
OVCAR-5 ovarian = test system: OVCAR-5 ovarian
OVCAR-8 ovarian = test system: OVCAR-8 ovarian
PC-3 prostate = test system: PC-3 prostate
RPMI-8226 leukemia = test system: RPMI-8226 leukemia
RXF 393 renal = test system: RXF 393 renal
SF-268 CNS = test system: SF-268 CNS
SF-295 CNS = test system: SF-295 CNS
SF-539 CNS = test system: SF-539 CNS
SK-MEL-2 melanoma = test system: SK-MEL-2 melanoma
SK-MEL-28 melanoma = test system: SK-MEL-28 melanoma
SK-MEL-5 melanoma = test system: SK-MEL-5 melanoma
SK-OV-3 ovarian = test system: SK-OV-3 ovarian
SN12C renal = test system: SN12C renal
SNB-19 CNS = test system: SNB-19 CNS
SR leukemia = test system: SR leukemia
SW-620 colon = test system: SW-620 colon
T-47D breast = test system: T-47D breast
TK-10 renal = test system: TK-10 renal
U251 CNS = test system: U251 CNS
UACC-257 melanoma = test system: UACC-257 melanoma
UACC-62 melanoma = test system: UACC-62 melanoma
UO-31 renal = test system: UO-31 renal
NCI-H226 lung = test system: NCI-H226 lung
OVCAR-4 ovarian = test system: OVCAR-4 ovarian
SNB-75 CNS = test system: SNB-75 CNS

For `O=C(/C=C/c1ccc2c(c1)OCO2)Cc1nc2ncccc2[nH]c1=O`, the TGI (786-0 renal) was over 100 µM, the TGI (A498 renal) was over 100 µM and the TGI (A549 NSCLC) was over 100 µM. It also gave a TGI (ACHN renal) of over 100 µM, a TGI (BT-549 breast) of over 100 µM and a TGI (CAKI-1 renal) of over 100 µM. The TGI (CCRF-CEM leukemia) was over 100 µM, the TGI (COLO 205 colon) was over 100 µM and the TGI (DU-145 prostate) was over 100 µM. The TGI (EKVX NSCLC) was over 100 µM, the TGI (HCC-2998 colon) was over 100 µM and the TGI (HCT-116 colon) was over 100 µM. For the same compound, the TGI (HCT-15 colon) was over 100 µM, the TGI (HL-60(TB) leukemia) was over 100 µM and the TGI (HOP-62 NSCLC) was over 100 µM. It also gave a TGI (HOP-92 NSCLC) of over 100 µM, a TGI (HS 578T breast) of over 100 µM and a TGI (HT29 colon) of over 100 µM. It also gave a TGI (IGROV1 ovarian) of over 100 µM, a TGI (K-562 leukemia) of over 100 µM and a TGI (KM12 colon) of over 100 µM. The TGI (LOX IMVI melanoma) was over 100 µM, the TGI (M14 melanoma) was over 100 µM and the TGI (MALME-3M melanoma) was over 100 µM. It also gave a TGI (MCF7 breast) of over 100 µM, a TGI (MDA-MB-231 breast) of over 100 µM and a TGI (MDA-MB-435) of over 100 µM. The TGI (MDA-N) was over 100 µM, the TGI (MOLT-4 leukemia) was over 100 µM and the TGI (NCI-H23 lung) was over 100 µM. The TGI (NCI-H460 lung) was over 100 µM, the TGI (NCI-H522 lung) was over 100 µM and the TGI (NCI/ADR-RES ovarian) was over 100 µM. The TGI (OVCAR-3 ovarian) was over 100 µM, the TGI (OVCAR-5 ovarian) was over 100 µM and the TGI (OVCAR-8 ovarian) was over 100 µM. For the same compound, the TGI (PC-3 prostate) was over 100 µM, the TGI (RPMI-8226 leukemia) was over 100 µM and the TGI (RXF 393 renal) was over 100 µM. For the same compound, the TGI (SF-268 CNS) was over 100 µM, the TGI (SF-295 CNS) was over 100 µM and the TGI (SF-539 CNS) was over 100 µM. The TGI (SK-MEL-2 melanoma) was over 100 µM, the TGI (SK-MEL-28 melanoma) was over 100 µM and the TGI (SK-MEL-5 melanoma) was over 100 µM. It also gave a TGI (SK-OV-3 ovarian) of over 100 µM, a TGI (SN12C renal) of over 100 µM and a TGI (SNB-19 CNS) of over 100 µM. It also gave a TGI (SR leukemia) of over 100 µM, a TGI (SW-620 colon) of over 100 µM and a TGI (T-47D breast) of over 100 µM. It also gave a TGI (TK-10 renal) of over 100 µM, a TGI (U251 CNS) of over 100 µM and a TGI (UACC-257 melanoma) of over 100 µM. The TGI (UACC-62 melanoma) was over 100 µM and the TGI (UO-31 renal) was over 100 µM.
`O=[N+]([O-])c1ccc(Cl)cc1N/N=C/c1ccnc2ccccc12` gave a TGI (786-0 renal) of over 100 µM, a TGI (A549 NSCLC) of over 100 µM and a TGI (ACHN renal) of over 100 µM. It also gave a TGI (BT-549 breast) of over 100 µM, a TGI (CAKI-1 renal) of over 100 µM and a TGI (CCRF-CEM leukemia) of over 100 µM. It also gave a TGI (COLO 205 colon) of over 100 µM, a TGI (DU-145 prostate) of over 100 µM and a TGI (EKVX NSCLC) of over 100 µM. For the same compound, the TGI (HCC-2998 colon) was over 100 µM, the TGI (HCT-116 colon) was over 100 µM and the TGI (HCT-15 colon) was over 100 µM. The TGI (HL-60(TB) leukemia) was over 100 µM, the TGI (HOP-62 NSCLC) was over 100 µM and the TGI (HS 578T breast) was over 100 µM. For the same compound, the TGI (HT29 colon) was over 100 µM, the TGI (IGROV1 ovarian) was over 100 µM and the TGI (K-562 leukemia) was over 100 µM. The TGI (KM12 colon) was over 100 µM, the TGI (M14 melanoma) was over 100 µM and the TGI (MCF7 breast) was over 100 µM. It also gave a TGI (MDA-MB-231 breast) of over 100 µM, a TGI (MDA-MB-435) of over 100 µM and a TGI (MDA-N) of over 100 µM. For the same compound, the TGI (MOLT-4 leukemia) was over 100 µM, the TGI (NCI-H226 lung) was over 100 µM and the TGI (NCI-H23 lung) was over 100 µM. It also gave a TGI (NCI-H460 lung) of over 100 µM, a TGI (NCI-H522 lung) of over 100 µM and a TGI (NCI/ADR-RES ovarian) of over 100 µM. For the same compound, the TGI (OVCAR-3 ovarian) was over 100 µM, the TGI (OVCAR-4 ovarian) was over 100 µM and the TGI (OVCAR-8 ovarian) was over 100 µM. It also gave a TGI (PC-3 prostate) of over 100 µM, a TGI (RPMI-8226 leukemia) of over 100 µM and a TGI (RXF 393 renal) of over 100 µM. For the same compound, the TGI (SF-268 CNS) was over 100 µM, the TGI (SF-295 CNS) was over 100 µM and the TGI (SF-539 CNS) was 49.5 µM. It also gave a TGI (SK-MEL-28 melanoma) of over 100 µM, a TGI (SK-MEL-5 melanoma) of over 100 µM and a TGI (SK-OV-3 ovarian) of over 100 µM. The TGI (SN12C renal) was over 100 µM, the TGI (SNB-19 CNS) was over 100 µM and the TGI (SNB-75 CNS) was over 100 µM. For the same compound, the TGI (SR leukemia) was over 100 µM, the TGI (SW-620 colon) was over 100 µM and the TGI (T-47D breast) was over 100 µM. It also gave a TGI (TK-10 renal) of over 100 µM, a TGI (U251 CNS) of over 100 µM and a TGI (UACC-257 melanoma) of over 100 µM. For the same compound, the TGI (UACC-62 melanoma) was over 100 µM and the TGI (UO-31 renal) was over 100 µM.
